Results from BindingDB's records for doi:10.1021/cb900232a (Stanford University, 2010).

Legend:
Assay in all cases: Enzyme kinetic assay
[1] = molecular target: T1, Procathepsin L (Mus musculus, UniProt P06797); conditions: pH 6.25; 25 °C
T1 sequence (P06797 whole entry): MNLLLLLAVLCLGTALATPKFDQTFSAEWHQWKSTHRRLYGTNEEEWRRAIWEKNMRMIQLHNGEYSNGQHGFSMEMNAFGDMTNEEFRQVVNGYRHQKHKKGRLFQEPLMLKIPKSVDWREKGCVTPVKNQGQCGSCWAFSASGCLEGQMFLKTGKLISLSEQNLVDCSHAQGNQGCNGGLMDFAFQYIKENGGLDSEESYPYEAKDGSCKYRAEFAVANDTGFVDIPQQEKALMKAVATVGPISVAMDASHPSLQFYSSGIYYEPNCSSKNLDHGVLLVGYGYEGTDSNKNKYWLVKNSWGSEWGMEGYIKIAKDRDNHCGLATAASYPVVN
Experimental: (§1) IC50 measurements and enzyme kinetics assays were performed on a Spectramax M5 fluorescent plate reader (Molecular Devices).

[2] = molecular target: T2, Caspase-3 (Mus musculus, UniProt P70677); conditions: pH 7.4; 25 °C
T2 sequence (P70677 whole entry): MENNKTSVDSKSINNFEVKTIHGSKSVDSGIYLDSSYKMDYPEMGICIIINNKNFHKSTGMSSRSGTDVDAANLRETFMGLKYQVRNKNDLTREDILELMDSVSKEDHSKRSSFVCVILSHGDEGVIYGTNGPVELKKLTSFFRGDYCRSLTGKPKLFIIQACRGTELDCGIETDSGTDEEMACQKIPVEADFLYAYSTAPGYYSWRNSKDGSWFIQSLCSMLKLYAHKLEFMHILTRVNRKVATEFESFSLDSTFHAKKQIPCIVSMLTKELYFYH
Experimental: as §1

[3] = molecular target: Cathepsin B (Mus musculus, UniProt P10605); conditions: pH 6.25; 25 °C
Cathepsin B, sequence (P10605 whole entry): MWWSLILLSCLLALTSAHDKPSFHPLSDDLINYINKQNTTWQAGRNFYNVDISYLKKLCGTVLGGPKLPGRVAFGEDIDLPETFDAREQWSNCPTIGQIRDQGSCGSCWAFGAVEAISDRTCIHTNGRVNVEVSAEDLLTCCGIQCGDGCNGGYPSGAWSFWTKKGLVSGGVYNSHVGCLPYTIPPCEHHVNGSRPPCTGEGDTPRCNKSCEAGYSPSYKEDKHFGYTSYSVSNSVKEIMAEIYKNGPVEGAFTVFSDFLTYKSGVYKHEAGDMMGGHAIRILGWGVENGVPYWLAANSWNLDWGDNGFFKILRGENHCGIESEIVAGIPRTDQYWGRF
Experimental: as §1

[4] = molecular target: T3, Legumain (Mus musculus, UniProt O89017); conditions: pH 5.8; 25 °C
T3 sequence (O89017 whole entry): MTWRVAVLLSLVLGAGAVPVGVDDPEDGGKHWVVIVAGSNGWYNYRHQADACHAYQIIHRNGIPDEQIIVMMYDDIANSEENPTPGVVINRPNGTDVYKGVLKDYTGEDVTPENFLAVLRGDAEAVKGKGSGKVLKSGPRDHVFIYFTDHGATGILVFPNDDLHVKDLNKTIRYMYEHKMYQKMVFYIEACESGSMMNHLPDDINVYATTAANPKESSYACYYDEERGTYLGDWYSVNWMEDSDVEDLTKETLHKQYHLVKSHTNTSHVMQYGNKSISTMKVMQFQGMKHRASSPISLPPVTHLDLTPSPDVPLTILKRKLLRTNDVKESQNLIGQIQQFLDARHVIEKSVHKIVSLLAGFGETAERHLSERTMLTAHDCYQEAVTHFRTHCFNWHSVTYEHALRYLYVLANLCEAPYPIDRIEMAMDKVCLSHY
Experimental: as §1

| Compound | IC50 [1] | IC50 [2] | IC50 [3] | IC50 [4] |
| --- | --- | --- | --- | --- |
| CCOC(=O)[C@H]1O[C@@H]1C(=O)N(CC(N)=O)NC(=O)[C@@H]1CCCN1C(C)=O [LI-1] | 220 µM | 890 µM | 390 µM | 0.0115 µM |
| CCOC(=O)[C@H]1O[C@@H]1C(=O)N[C@H](C(=O)NCCc1ccc(O)cc1)C(C)CC (stereo partly specified) [CID644294] | 2.98 µM | – | 0.78 µM | – |
